Reference: patent publication US9969710B2, “Heteroaryl compounds as IRAK inhibitors and uses thereof” (Merck Patent GmbH, priority 2015, dated 2018)

Columns and labels:
[1] = system: TLR7 induced IL-6 secretion in human mononuclear cells (PBMC's); assay: TLR7 induced IL-6 in human PBMC's; format: cell-based; details: TLR7 specific ligand 2 uM overnight, IL-6 AlphaLISA
Experimental: TLR7 Induced IL-6 in Human PBMC's
Human PBMC assay was used as one of the functional assaya to monitor the activity of IRAK1 and IRAK4 small molecule inhibitors on TLR7 induced IL-6 secretion in human mononuclear cells (PBMC's). Human PBMCs were prepared from buffy coats (whole blood enriched with leukocytes and platelets) obtained from healthy volunteers used either fresh or frozen are plated in assay media (RPMI+2% P/S/L-glu+10% HI-FBS) and pre-treated with compounds in DMSO/media (range of concentrations from 25 uM to 0.4 nM) or controls (0.25% DMSO) for 30 minutes at 37° C. in assay media. Following pre-treatment with IRAK1 and IRAK4 inhibitors, PBMC's were stimulated with TLR7 specific ligand (2 uM) overnight (16-18 hrs) at 37° C. After incubation supernatant was transferred to 384 well PE AlphaPlate-384 (6005350) and IL-6 is quantified using Perkin Elmer IL-6 Alpha LISA kit (AL223C). Plates were read on an Envision® plate reader with Alpha Technology®.

IRAK1 = target: T1, IRAK1 (Homo sapiens, UniProt P51617); assay: IRAK1 enzymatic assay (ADP-Glo luminescence); format: biochemical; details: human recombinant His-TEV-IRAK1 (194-712), ATP 1 μM; read-out: IRAK 1 IC50
T1 construct: His-TEV-IRAK1 (194-712); His (N); TEV cleavage site (N)
Experimental: IRAK1 is a human purified recombinant enzyme (His-TEV-IRAK1 (194-712))
In this assay, IRAK1 hydrolyses ATP and autophosphorylates. Measurement of IRAK-1 inhibition is performed in 384-well format based on luminescence assay (ADP-Glo™ Kinase Assay from Promega). Purified human recombinant IRAK1 ([…]) and serial diluted compounds in DMSO (range of concentration from 10 μM to 0.5 nM) or controls (1% DMSO) are incubated for 15 minutes at RT in assay buffer containing 50 mM Hepes pH 7.0, Fatty acid-free BSA 0.1%, Dithiothreitol (DTT) 2 mM, MgCl2 10 mM, EGTA 0.5 mM, Triton X-100 0.01%. The kinase reaction is then initiated by the addition of ATP at a concentration of 1 μM. After 2 hours of incubation at RT, the reaction is stopped and the unconsumed ATP depleted by the addition of ADP-Glo™ Reagent according to supplier instructions. After 40 minutes of incubation at RT, the Kinase Detection Reagent is then added to the assay plate according to supplier instructions. After 20 minutes of incubation at RT, the luminescence signal is measured with a luminometer (PerkinElmer Envision or equivalent reader).

IRAK4 = target: T2, IRAK4 (Homo sapiens, UniProt Q9NWZ3); assay: IRAK4 enzymatic assay (ADP-Glo luminescence); format: biochemical; details: human recombinant His-TEV-IRAK4 (1-460), STK1-biotin peptide substrate
T2 construct: His-TEV-IRAK4 (1-460); His (N); TEV cleavage site (N)
T2 sequence (Q9NWZ3 1-460): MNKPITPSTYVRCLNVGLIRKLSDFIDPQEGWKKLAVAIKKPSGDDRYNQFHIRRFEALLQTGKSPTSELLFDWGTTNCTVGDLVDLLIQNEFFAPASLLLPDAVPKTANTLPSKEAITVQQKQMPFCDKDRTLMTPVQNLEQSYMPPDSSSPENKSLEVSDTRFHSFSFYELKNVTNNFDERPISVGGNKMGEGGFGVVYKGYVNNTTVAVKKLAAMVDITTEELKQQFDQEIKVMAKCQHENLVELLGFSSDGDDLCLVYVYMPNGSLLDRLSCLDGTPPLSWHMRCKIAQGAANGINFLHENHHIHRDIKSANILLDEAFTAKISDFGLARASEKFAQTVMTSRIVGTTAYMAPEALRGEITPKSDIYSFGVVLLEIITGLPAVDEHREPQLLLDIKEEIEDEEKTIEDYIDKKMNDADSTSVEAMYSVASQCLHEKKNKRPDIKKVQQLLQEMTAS
Experimental: IRAK4 is a human purified recombinant enzyme (His-TEV-IRAK4 (1-460)).
In this assay, IRAK4 hydrolyses ATP, autophosphorylates and phosphorylates a Serine/Threonine generic peptidic substrate (STK: 61ST1BLC from CisBio International). Measurement of IRAK-4 inhibition is performed in 384-well format based on a luminescence assay (ADP-Glo™ Kinase Assay from Promega). Purified human recombinant IRAK4 ([…]) and serial diluted compounds in DMSO (range of concentration from 10 μM to 0.5 nM) or controls (1% DMSO) are incubated for 15 minutes at RT in assay buffer containing 50 mM Hepes pH 7.0, Fatty acid-free BSA 0.1%, Dithiothreitol (DTT) 2 mM, MgCl2 10 mM, EGTA 0.5 mM, Triton X-100 0.01%, MnCl2 5 mM. The kinase reaction is then initiated by the addition of ATP ([…]) and the peptidic substrate STK1-biotin peptide (300 nM). After 2 hours of incubation at RT, the reaction is stopped and the unconsumed ATP depleted by the addition of ADP-Glo™ Reagent according to supplier instructions. After 40 minutes of incubation at RT, the Kinase Detection Reagent is then added to the assay plate according to supplier instructions. After 20 minutes of incubation at RT, the luminescence signal is measured with a plate-reading luminometer (PerkinElmer Envision or equivalent reader).

T1 sequence (P51617 194-712): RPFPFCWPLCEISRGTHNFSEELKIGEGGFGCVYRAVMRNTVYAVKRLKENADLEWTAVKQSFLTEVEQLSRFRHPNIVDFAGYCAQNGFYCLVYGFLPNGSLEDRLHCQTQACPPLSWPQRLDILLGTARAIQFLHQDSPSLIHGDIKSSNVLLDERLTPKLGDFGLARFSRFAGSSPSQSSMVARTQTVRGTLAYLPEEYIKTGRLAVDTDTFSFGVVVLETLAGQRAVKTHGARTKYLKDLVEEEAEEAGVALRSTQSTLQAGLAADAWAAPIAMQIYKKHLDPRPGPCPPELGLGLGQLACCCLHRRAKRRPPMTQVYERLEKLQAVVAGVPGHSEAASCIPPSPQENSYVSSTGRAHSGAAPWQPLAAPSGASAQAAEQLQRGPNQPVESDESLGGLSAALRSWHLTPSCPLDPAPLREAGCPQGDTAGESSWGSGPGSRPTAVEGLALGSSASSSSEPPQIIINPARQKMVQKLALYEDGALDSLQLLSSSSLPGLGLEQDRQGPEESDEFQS

SMILES: CN1CCC[C@H](c2ccc3c(c2)[nH]/c(=N\C(=O)c2cccc(C(F)(F)F)c2)n3CCCO)C1=O [Compound 1b, (R,E)-N-(1-(3-hydroxypropyl)-5-(1-methyl-2-oxopiperidin-3-yl)-1H-benzo[d]imidazol-2(3H)-ylidene)-3-(trifluoromethyl)benzamide]
- IC50 ([1]; Homo sapiens, PBMC): 1000 to 10000 nM
- IC50 (IRAK1): 100 to 1000 nM
- IC50 (IRAK4): ≤ 100 nM

SMILES: CN1CCCC(c2ccc3c(c2)[nH]/c(=N\C(=O)c2cccc(C(F)(F)F)c2)n3CCCO)C1=O (stereo not drawn) [Compound 1, (E)-N-(1-(3-hydroxypropyl)-5-(1-methyl-2-oxopiperidin-3-yl)-1H-benzo[d]imidazol-2(3H)-ylidene)-3-(trifluoromethyl)benzamide]
- IC50 ([1]; Homo sapiens, PBMC): ≤ 100 nM
- IC50 (IRAK1): ≤ 100 nM
- IC50 (IRAK4): ≤ 100 nM

SMILES: CN1CCC(c2ccc3c(c2)[nH]/c(=N\C(=O)c2cccc(C(F)(F)F)c2)n3CC(O)CO)C1=O (stereo not drawn) [Compound 20, N-[1-(2,3-Dihydroxy-propyl)-5-(1-methyl-2-oxo-pyrrolidin-3-yl)-1,3-dihydro-benzoimidazol-(2E)-ylidene]-3-trifluoromethyl-benzamide]
- IC50 ([1]; Homo sapiens, PBMC): 100 to 1000 nM
- IC50 (IRAK1): 100 to 1000 nM
- IC50 (IRAK4): ≤ 100 nM

SMILES: CN1C(=O)CCC1(C)c1ccc2c(c1)nc(NC(=O)c1cccc(C(F)F)c1)n2CCCO (stereo not drawn) [Compound 31, 3-Difluoromethyl-N-[5-(1,2-dimethyl-5-oxo-pyrrolidin-2-yl)-1-(3-hydroxy-propyl)-1H-benzoimidazol-2-yl]-benzamide]
- IC50 ([1]; Homo sapiens, PBMC): 1000 to 10000 nM
- IC50 (IRAK1): 100 to 1000 nM
- IC50 (IRAK4): ≤ 100 nM

SMILES: CN1CC[C@@](C)(c2ccc3c(c2)nc(NC(=O)c2cccc(C(F)F)c2)n3CCCO)C1=O [Compound 30b, N-{5-[(3S)-1,3-dimethyl-2-oxopyrrolidin-3-yl]-1-(3-hydroxypropyl)-1H-1,3-benzodiazol-2-yl}-3-(diifluoromethyl)benzamide]
- IC50 ([1]; Homo sapiens, PBMC): 1000 to 10000 nM
- IC50 (IRAK1): 100 to 1000 nM
- IC50 (IRAK4): ≤ 100 nM

SMILES: CN1CC(c2ccc3c(c2)nc(NC(=O)c2cccc(C(F)F)c2)n3CCCO)C(C)(C)C1=O (single isomer, unassigned) [Compound 27a]
- IC50 ([1]; Homo sapiens, PBMC): 100 to 1000 nM
- IC50 (IRAK1): ≤ 100 nM
- IC50 (IRAK4): ≤ 100 nM

SMILES: C=CCCn1/c(=N/C(=O)c2cccc(C(F)(F)F)c2)[nH]c2cc(C3CCN(C)C3=O)ccc21 (stereo not drawn) [Compound 17, N-[1-But-3-enyl-5-(1-methyl-2-oxo-pyrrolidin-3-yl)-1,3-dihydro-benzoimidazol-(2E)-ylidene]-3-trifluoromethyl-benzamide]
- IC50 ([1]; Homo sapiens, PBMC): 100 to 1000 nM
- IC50 (IRAK1): 100 to 1000 nM
- IC50 (IRAK4): ≤ 100 nM

SMILES: CN1CCC(C)(c2ccc3c(c2)nc(NC(=O)c2cccc(C(F)(F)F)c2)n3CCCO)C1=O (single isomer, unassigned) [Compound 29b]
- IC50 [1]: 100 to 1000 nM
- IC50 (IRAK1): 100 to 1000 nM
- IC50 (IRAK4): ≤ 100 nM

SMILES: CN1CCC(c2ccc3c(c2)[nH]/c(=N\C(=O)c2cccc(C(F)(F)F)c2)n3CC(O)CO)C1=O (single isomer, unassigned) [Compound 20b]
- IC50 [1]: 1000 to 10000 nM
- IC50 (IRAK1): 100 to 1000 nM
- IC50 (IRAK4): ≤ 100 nM

SMILES: CN1CCC[C@H](c2ccc3c(c2)[nH]/c(=N\C(=O)c2cccc(C(F)F)c2)n3C[C@](C)(F)CO)C1=O (single isomer, unassigned) [Compound 3c]
- IC50 ([1]; Homo sapiens, PBMC): ≤ 100 nM
- IC50 (IRAK1): 100 to 1000 nM
- IC50 (IRAK4): ≤ 100 nM

SMILES: CN1C(=O)CC[C@@]1(C)c1ccc2c(c1)nc(NC(=O)c1cccc(C(F)F)c1)n2CCCO [Compound 31b, 3-(difluoromethyl)-N-{5-[(2S)-1,2-dimethyl-5-oxopyrrolidin-2-yl]-1-(3-hydroxypropyl)-1H-1,3-benzodiazol-2-yl}benzamide]
- IC50 ([1]; Homo sapiens, PBMC): 1000 to 10000 nM
- IC50 (IRAK1): 1000 to 10000 nM
- IC50 (IRAK4): ≤ 100 nM

SMILES: CC(=O)N1CCC(c2ccc3c(c2)[nH]/c(=N\C(=O)c2cccc(C(F)(F)F)c2)n3CCCO)CC1 [Compound 13, (E)-N-(5-(1-acetylpiperidin-4-yl)-1-(3-hydroxypropyl)-1H-benzo[d]imidazol-2(3H)-ylidene)-3-(trifluoromethyl)benzamide]
- IC50 ([1]; Homo sapiens, PBMC): 100 to 1000 nM
- IC50 (IRAK1): ≤ 100 nM
- IC50 (IRAK4): ≤ 100 nM

SMILES: CN1CCC[C@H](c2ccc3c(c2)[nH]/c(=N\C(=O)c2cccc(C(F)F)c2)n3C[C@@](C)(F)CO)C1=O [Compound 3a, 3-(difluoromethyl)-N-[(2E)-1-[(2R)-2-fluoro-3-hydroxy-2-methylpropyl]-5-[(3R)-1-methyl-2-oxopiperidin-3-yl]-2,3-dihydro-1H-1,3-benzodiazol-2-ylidene]benzamide]
- IC50 ([1]; Homo sapiens, PBMC): 100 to 1000 nM
- IC50 (IRAK1): 1000 to 10000 nM
- IC50 (IRAK4): ≤ 100 nM

SMILES: CN1CCCC(c2ccc3c(c2)[nH]/c(=N\C(=O)c2cccc(C(F)(F)F)c2)n3CCC(O)CO)C1=O (single isomer, unassigned) [Compound 22a]
- IC50 [1]: ≤ 100 nM
- IC50 (IRAK1): 100 to 1000 nM
- IC50 (IRAK4): ≤ 100 nM

SMILES: CN1CCC(c2ccc3c(c2)[nH]/c(=N\C(=O)c2cccc(C(F)(F)F)c2)n3CCC(O)CO)C1=O (stereo not drawn) [Compound 21, N-[1-(3,4-Dihydroxy-butyl)-5-(1-methyl-2-oxo-pyrrolidin-3-yl)-1,3-dihydro-benzoimidazol-(2E)-ylidene]-3-trifluoromethyl-benzamide]
- IC50 ([1]; Homo sapiens, PBMC): ≤ 100 nM
- IC50 (IRAK1): 100 to 1000 nM
- IC50 (IRAK4): ≤ 100 nM

SMILES: CN1CCC(C)(c2ccc3c(c2)nc(NC(=O)c2cccc(C(F)(F)F)c2)n3CCCO)C1=O (single isomer, unassigned) [Compound 29a]
- IC50 [1]: 1000 to 10000 nM
- IC50 (IRAK1): 1000 to 10000 nM
- IC50 (IRAK4): ≤ 100 nM

SMILES: CN1CCCC(c2ccc3c(c2)[nH]/c(=N\C(=O)c2cccc(C(F)(F)F)c2)n3CCC(O)CO)C1=O (single isomer, unassigned) [Compound 22c]
- IC50 [1]: 1000 to 10000 nM
- IC50 (IRAK1): 100 to 1000 nM
- IC50 (IRAK4): ≤ 100 nM

SMILES: CN1CCC(c2ccc3c(c2)[nH]/c(=N\C(=O)c2cccc(C(F)(F)F)c2)n3CCC(O)CO)C1=O (single isomer, unassigned) [Compound 21b]
- IC50 [1]: 100 to 1000 nM
- IC50 (IRAK1): 100 to 1000 nM
- IC50 (IRAK4): ≤ 100 nM

SMILES: CN1CCC(c2ccc3c(c2)[nH]/c(=N\C(=O)c2cccc(C(F)(F)F)c2)n3CCC(O)CO)C1=O (single isomer, unassigned) [Compound 21d]
- IC50 [1]: 100 to 1000 nM
- IC50 (IRAK1): ≤ 100 nM
- IC50 (IRAK4): ≤ 100 nM

SMILES: CN1CCCC(c2ccc3c(c2)[nH]/c(=N\C(=O)c2cccc(C(F)F)c2)n3C[C@@](C)(F)CO)C1=O (stereo partly drawn) [Compound 2b, (E)-3-(difluoromethyl)-N-(1-((R)-2-fluoro-3-hydroxy-2-methylpropyl)-5-(1-methyl-2-oxopiperidin-3-yl)-1H-benzo[d]imidazol-2(3H)-ylidene)benzamide]
- IC50 ([1]; Homo sapiens, PBMC): ≤ 100 nM
- IC50 (IRAK1): 100 to 1000 nM
- IC50 (IRAK4): ≤ 100 nM
